In brackets after ≈: the same amount, converted by molar mass.
How the values were obtained:
Assay in all cases: ≥ marks a high value that may be exact or a test limit, other limits are often not marked, values filed in µg/mL are converted to µM
Escherichia coli UB1005 = test system: Escherichia coli UB1005
[1] = test system: Pseudomonas aeruginosa PAO1
Bacillus cereus C737 = test system: Bacillus cereus C737
[2] = test system: Enterococcus faecium mic80
[3] = test system: Pseudomonas aeruginosa LES400
[4] = test system: Staphylococcus aureus C623
[5] = test system: Pseudomonas aeruginosa H103
[6] = test system: Escherichia coli ESBL 63103
[7] = test system: Pseudomonas aeruginosa 213
[8] = test system: Staphylococcus aureus ATCC 25923
Candida albicans C627 = test system: Candida albicans C627
Escherichia coli K88 = test system: Escherichia coli K88
[9] = test system: Staphylococcus epidermidis ATCC 12228
[10] = test system: Bacillus subtilis CMCC 63501
Escherichia coli 078 = test system: Escherichia coli 078
Escherichia coli K99 = test system: Escherichia coli K99
[11] = test system: Enterococcus faecalis ATCC 29212
Candida albicans CA2761 = test system: Candida albicans CA2761
[12] = test system: Candida krusei CGMCC 2.1857
[13] = test system: Salmonella enterica subsp. enterica serovar Pullorum C79-13
[14] = test system: Candida tropicalis CGMCC 2.1975
[15] = test system: Escherichia coli ATCC 25922
Escherichia coli EC183 = test system: Escherichia coli EC183
[16] = test system: Salmonella enterica subsp. enterica serovar Typhimurium C77-31
[17] = test system: Salmonella enterica subsp. enterica serovar Typhimurium ATCC 14028
[18] = test system: Staphylococcus aureus ATCC 29213
[19] = test system: Candida albicans CGMCC 2.2086
Klebsiella pneumoniae = test system: Klebsiella pneumoniae
Streptococcus pneumoniae = test system: Streptococcus pneumoniae
Citrobacter sp. = test system: Citrobacter sp.
Enterobacter cloacae = test system: Enterobacter cloacae
[20] = test system: Acinetobacter baumannii ATCC 15308
[21] = test system: Pseudomonas aeruginosa ATCC 15442
Staphylococcus aureus = test system: Staphylococcus aureus
[22] = test system: Vibrio anguillarum ATCC 43305
[23] = test system: Pseudomonas aeruginosa ATCC 27853
[24] = test system: Bacillus subtilis ATCC 6051
[25] = test system: Acinetobacter baumannii ATCC 19606

CC[C@H](C)[C@H](NC(=O)[C@H](CC(=O)O)NC(=O)[C@H](Cc1ccccc1)NC(=O)[C@H](CC(C)C)NC(=O)CN)C(=O)N[C@H](C(=O)N[C@@H](CCCCN)C(=O)N[C@@H](CCCCN)C(=O)N[C@H](C(=O)N[C@H](C(N)=O)C(C)C)C(C)C)C(C)C [GLFDIVKKVV]
MIC (Escherichia coli UB1005): ≥ 115 µM
MIC [1]: > 115 µM
MIC (Bacillus cereus C737): ≥ 115 µM

NCCCC[C@H](NC(=O)[C@@H](N)CCCN=C(N)N)C(=O)N[C@@H](CCCN=C(N)N)C(=O)N[C@@H](Cc1c[nH]c2ccccc12)C(=O)N[C@@H](Cc1c[nH]c2ccccc12)C(=O)N[C@@H](Cc1c[nH]c2ccccc12)C(=O)N[C@@H](Cc1c[nH]c2ccccc12)C(=O)N[C@@H](Cc1ccccc1)C(=O)N[C@@H](CCCN=C(N)N)C(=O)O [RKRWWWWFR]
MIC [2]: 5.31 µM (≈ 8 µg/mL)
MIC [3]: 21.2 µM (≈ 32 µg/mL)
MIC [4]: 1.33 µM (≈ 2 µg/mL)
MIC [5]: 1.33 µM (≈ 2 µg/mL)
MIC [6]: 5.31 µM (≈ 8 µg/mL)
MIC [7]: 5.31 µM (≈ 8 µg/mL)
MIC [8]: 2.65 µM (≈ 4 µg/mL)
MIC (Candida albicans C627): 5.31 µM (≈ 8 µg/mL)

CC[C@H](C)[C@H](NC(=O)[C@H](Cc1c[nH]c2ccccc12)NC(=O)[C@H](CCCCN)NC(=O)[C@H](CC(C)C)NC(=O)[C@@H](NC(=O)[C@H](CCCCN)NC(=O)CNC(=O)[C@@H](NC(=O)[C@H](CCCCN)NC(=O)[C@H](CCCCN)NC(=O)[C@H](CC(C)C)NC(=O)[C@@H](N)CCCN=C(N)N)[C@@H](C)CC)C(C)C)C(N)=O [RLKKIGKVLKWI]
MIC (Escherichia coli UB1005): 16 µM (≈ 23.7 µg/mL)
MIC (Escherichia coli K88): 4 µM (≈ 5.92 µg/mL)
MIC [9]: 64 µM (≈ 94.8 µg/mL)
MIC [10]: 2 µM (≈ 2.96 µg/mL)
MIC (Escherichia coli 078): 16 µM (≈ 23.7 µg/mL)
MIC (Escherichia coli K99): 4 µM (≈ 5.92 µg/mL)
MIC [11]: 64 µM (≈ 94.8 µg/mL)
MIC (Candida albicans CA2761): ≥ 128 µM
MIC [12]: 16 µM (≈ 23.7 µg/mL)
MIC [13]: 4 µM (≈ 5.92 µg/mL)
MIC [14]: 8 µM (≈ 11.8 µg/mL)
MIC [15]: 8 µM (≈ 11.8 µg/mL)
MIC (Escherichia coli EC183): 2 µM (≈ 2.96 µg/mL)
MIC [16]: 8 µM (≈ 11.8 µg/mL)
MIC [17]: 16 µM (≈ 23.7 µg/mL)
MIC [18]: 64 µM (≈ 94.8 µg/mL)
MIC [8]: 128 µM (≈ 190 µg/mL)
MIC [19]: ≥ 128 µM

NC(=O)[C@H](CCCN=C(N)N)NC(=O)[C@H](CCCN=C(N)N)NC(=O)[C@H](Cc1c[nH]c2ccccc12)NC(=O)[C@@H]1CCCN1C(=O)[C@H](Cc1c[nH]c2ccccc12)NC(=O)[C@H](Cc1c[nH]c2ccccc12)NC(=O)[C@@H]1CCCN1C(=O)[C@H](Cc1c[nH]c2ccccc12)NC(=O)[C@H](CCCN=C(N)N)NC(=O)[C@H](Cc1c[nH]c2ccccc12)NC(=O)[C@@H]1CCCN1C(=O)[C@H](CCCN=C(N)N)NC(=O)[C@@H](N)CCCN=C(N)N [RRPWRWPWWPWRR]
MIC (Klebsiella pneumoniae): > 124 µM
MIC (Streptococcus pneumoniae): 15.5 µM (≈ 31.2 µg/mL)
MIC (Citrobacter sp.): ≥ 124 µM
MIC (Enterobacter cloacae): ≥ 124 µM
MIC [20]: ≥ 124 µM
MIC [21]: 15.5 µM (≈ 31.2 µg/mL)
MIC [15]: 15.5 µM (≈ 31.2 µg/mL)
MIC (Staphylococcus aureus): 15.5 µM (≈ 31.2 µg/mL)
MIC [8]: 15.5 µM (≈ 31.2 µg/mL)

CC[C@H](C)[C@H](NC(=O)[C@H](CCCN=C(N)N)NC(=O)[C@H](CCCN=C(N)N)NC(=O)[C@@H](NC(=O)[C@@H](NC(=O)[C@H](CCCN=C(N)N)NC(=O)[C@H](CCCN=C(N)N)NC(=O)[C@H](Cc1ccccc1)NC(=O)[C@H](CCCN=C(N)N)NC(=O)[C@H](CCCN=C(N)N)NC(=O)[C@H](CCCN=C(N)N)NC(=O)[C@H](CCCN=C(N)N)NC(=O)[C@@H](N)CCCN=C(N)N)C(C)C)[C@@H](C)CC)C(=O)N[C@@H](CCCN=C(N)N)C(=O)N[C@@H](CC(C)C)C(=O)N1CCC[C@H]1C(=O)N[C@@H](CCCCN)C(=O)N[C@@H](Cc1ccc(O)cc1)C(=O)N[C@@H](CC(C)C)C(=O)N[C@H](C(=O)N[C@H](C(=O)N[C@@H](CC(N)=O)C(=O)N[C@H](C(=O)N[C@@H](CCC(=O)O)C(=O)O)[C@@H](C)O)[C@@H](C)CC)[C@@H](C)O [RRRRRFRRVIRRIRLPKYLTINTE]
MIC [22]: ≥ 32 µM
MIC [23]: 32 µM (≈ 103 µg/mL)
MIC [24]: ≥ 32 µM
MIC [25]: 2 µM (≈ 6.45 µg/mL)
MIC [15]: 4 µM (≈ 12.9 µg/mL)
MIC [8]: 8 µM (≈ 25.8 µg/mL)

— DBAASP
